{
  "source": "patent US20100215723A1",
  "about": "“Wound Dressing with Antimicrobial Gauze and Bonding Agent” (priority 2009, published 2010)",
  "origin": "cited, not measured here",
  "key": {"[1]": {"tested_on": "pseudomonas aeruginosa", "details": "stated as known"}, "[2]": {"tested_on": "aspergillus niger", "details": "stated as known"}},
  "data": [
    {"substance": "Polyhexamethylene biguanide [PHMB]", "values": [
      {"measurement": "indicative MIC value", "setting": "[1]", "value": 100, "unit": "ppm"},
      {"measurement": "indicative MIC value", "setting": "[2]", "value": 750, "unit": "ppm"}
    ]}
  ]
}
